Test results: publication PMC11578313, “Miniaturized Modular Click Chemistry‐enabled Rapid Discovery of Unique SARS‐CoV‐2 M^pro Inhibitors With Robust Potency and Drug‐like Profile” (Advanced Science, 2024)

Assays:
[1] = system: SARS‐CoV‐2 Omicron (hCoV‐19/Korea/KDCA447321/2021); experiment: microbe, parasite or virus in culture; format: cell-based; conditions: Severe acute respiratory syndrome coronavirus 2, Calu-3, read-out: EC50 ± SD, SARS‐CoV‐2 Omicron
in vivo = conditions: ICR, mouse, po
[2] = system: SARS‐CoV‐2 S and N proteins; format: cell-based
in vitro = conditions: rhesus monkey
[3] = Cytotoxicity assay (MTT) in MRC‐5 cells; conditions: human
[4] = system: SARS‐CoV‐2 Delta (hCoV‐19/Korea/KDCA119861/2021); experiment: microbe, parasite or virus in culture; format: cell-based; conditions: Severe acute respiratory syndrome coronavirus 2; Calu‐3; read-out: EC50 ± SD, SARS‐CoV‐2 Delta
[5] = 10 mg/kg, p.o. in combination with ritonavir, p.o. 10 mg kg^−1 with 20 mg kg^−1 ritonavir, ICR mice, n = 3
[6] = male, 10 mg/kg, Mean, C5N17B+Ritonavir, PO 10 mg/kg, mean of 3 mice
[7] = male, 10 mg/kg, Plasma concentration (Calculated Concentration), C5N17B+Ritonavir, PO 10 mg/kg, mouse plasma, individual mice
[8] = male, 10 mg/kg, Plasma concentration, Mean, C5N17B+Ritonavir, PO 10 mg/kg, mean of mice 1#-3#

Q: Which EC50 [1] does the source give for Cc1cncc(C(=O)N2C[C@H]3CC[C@@H](C2)N3[C@H](c2cccc(F)c2)c2cn(CCc3ccsc3)nn2)c1 [Compound C5N17B] here?
A: Its EC50 is 135 ± 3 nM.

Q: What about the Cmax (in vivo; [5]) of the same molecule?
A: Its Cmax is 2300 ± 162 ng/mL.

Q: What about the MRT (in vivo; 10 mg/kg, MRT0‐t, p.o. in combination with ritonavir, p.o. 10 mg kg^−1 with 20 mg kg^−1 ritonavir, ICR mice, n = 3) of the same molecule?
A: The MRT was 3.15 ± 0.456 h.

Q: What about the MRT (in vivo; 10 mg/kg, MRT0‐∞, p.o. in combination with ritonavir, p.o. 10 mg kg^−1 with 20 mg kg^−1 ritonavir, ICR mice, n = 3) of the same molecule?
A: The MRT was 4.88 ± 2.7 h.

Q: And the Tmax (in vivo; [5])?
A: The Tmax was 2.08 ± 1.88 h.

Q: And the half-life (in vivo; 10 mg/kg, t1/2, p.o. in combination with ritonavir, p.o. 10 mg kg^−1 with 20 mg kg^−1 ritonavir, ICR mice, n = 3)?
A: Its half-life is 3.14 ± 2.06 h.

Q: And the AUC (in vivo; AUC0‐t, p.o. in combination with ritonavir, p.o. 10 mg kg^−1 with 20 mg kg^−1 ritonavir, ICR mice, n = 3)?
A: Its AUC is 11500 ng·h/mL.

Q: What about the AUC(0-t) (in vivo; male, 10 mg/kg, AUC0-t, C5N17B+Ritonavir, PO 10 mg/kg, individual mice 1#-3#) of the same molecule?
A: The AUC(0-t) was 9690 ng·h/mL.

Q: What about the AUC(0-t) (in vivo; male, 10 mg/kg, AUC0-t, Mean, C5N17B+Ritonavir, PO 10 mg/kg, mean of 3 mice) of the same molecule?
A: The AUC(0-t) was 11500 ng·h/mL.

Q: And the AUC(0-inf) (in vivo; male, 10 mg/kg, AUC0-∞, C5N17B+Ritonavir, PO 10 mg/kg, individual mice 1#-3#)?
A: The AUC(0-inf) was 10400 ng·h/mL.

Q: And the AUC(0-inf) (in vivo; male, 10 mg/kg, AUC0-∞, Mean, C5N17B+Ritonavir, PO 10 mg/kg, mean of 3 mice)?
A: Its AUC(0-inf) is 14200 ng·h/mL.

Q: What about the AUC(0-inf) (in vivo; male, 10 mg/kg, AUCINF_obs, C5N17B+Ritonavir, po 10 mg/kg, non-compartmental output, individual mice) of the same molecule?
A: The AUC(0-inf) was 10400 ng·h/mL.

Q: And the AUC(0-inf) (in vivo; male, 10 mg/kg, AUCINF_pred, C5N17B+Ritonavir, po 10 mg/kg, based on predicted Clast, individual mice)?
A: The AUC(0-inf) was 10800 ng·h/mL.

Q: What about the AUC (in vivo; male, 10 mg/kg, AUCall, C5N17B+Ritonavir, po 10 mg/kg, non-compartmental output, individual mice) of the same molecule?
A: Its AUC is 9690 ng·h/mL.

Q: What about the AUC(0-t) (in vivo; male, 10 mg/kg, AUClast, C5N17B+Ritonavir, po 10 mg/kg, non-compartmental output, individual mice) of the same molecule?
A: Its AUC(0-t) is 9690 ng·h/mL.

Q: What about the CL/F (in vivo; male, 10 mg/kg, Cl_F_obs, C5N17B+Ritonavir, po 10 mg/kg, non-compartmental output, individual mice) of the same molecule?
A: Its CL/F is 16 mL/min/kg.

Q: What about the Cmax (in vivo; male, 10 mg/kg, C5N17B+Ritonavir, PO 10 mg/kg, individual mice 1#-3#) of the same molecule?
A: The Cmax was 2270 ng/mL.

Q: And the Cmax (in vivo; male, 10 mg/kg, C5N17B+Ritonavir, po 10 mg/kg, non-compartmental output, individual mice)?
A: Its Cmax is 2270 ng/mL.

Q: And the Cmax (in vivo; [6])?
A: The Cmax was 2300 ng/mL.

Q: And the MRT last (in vivo; male, 10 mg/kg, MRT0-t, C5N17B+Ritonavir, PO 10 mg/kg, individual mice 1#-3#)?
A: Its MRT last is 2.62 h.

Q: What about the MRT last (in vivo; male, 10 mg/kg, MRT0-t, Mean, C5N17B+Ritonavir, PO 10 mg/kg, mean of 3 mice) of the same molecule?
A: Its MRT last is 3.15 h.

Q: What about the MRT inf (in vivo; male, 10 mg/kg, MRT0-∞, Mean, C5N17B+Ritonavir, PO 10 mg/kg, mean of 3 mice) of the same molecule?
A: Its MRT inf is 4.88 h.

Q: And the MRT last (in vivo; male, 10 mg/kg, MRTlast, C5N17B+Ritonavir, po 10 mg/kg, non-compartmental output, individual mice)?
A: The MRT last was 2.62 h.

Q: And the concentration at 5 min (in vivo; male, 10 mg/kg, Plasma concentration (Calculated Concentration), C5N17B+Ritonavir, PO 10 mg/kg, mouse plasma, 5 min (5min), individual mice)?
A: The concentration at 5 min was 680 ng/mL.

Q: What about the concentration at 0.5 h (in vivo; male, 10 mg/kg, Plasma concentration (Calculated Concentration), C5N17B+Ritonavir, PO 10 mg/kg, mouse plasma, 0.5 h (30min), individual mice) of the same molecule?
A: Its concentration at 0.5 h is 2280 ng/mL.

Q: What about the concentration at 1 h (in vivo; [7]) of the same molecule?
A: The concentration at 1 h was 2210 ng/mL.

Q: What about the concentration at 2 h (in vivo; [7]) of the same molecule?
A: The concentration at 2 h was 1910 ng/mL.

Q: What about the concentration at 4 h (in vivo; [7]) of the same molecule?
A: The concentration at 4 h was 1180 ng/mL.

Q: And the concentration at 5 min (in vivo; male, 10 mg/kg, Plasma concentration, Mean, C5N17B+Ritonavir, PO 10 mg/kg, 5 min, mean of mice 1#-3#)?
A: The concentration at 5 min was 660 ng/mL.

Q: And the concentration at 0.5 h (in vivo; male, 10 mg/kg, Plasma concentration, Mean, C5N17B+Ritonavir, PO 10 mg/kg, 0.50 h, mean of mice 1#-3#)?
A: The concentration at 0.5 h was 1740 ng/mL.

Q: And the concentration at 1 h (in vivo; [8])?
A: Its concentration at 1 h is 1970 ng/mL.

Q: And the concentration at 2 h (in vivo; [8])?
A: The concentration at 2 h was 2110 ng/mL.

Q: What about the concentration at 4 h (in vivo; [8]) of the same molecule?
A: Its concentration at 4 h is 1750 ng/mL.

Q: What about the concentration at 6 h (in vivo; male, 10 mg/kg, Plasma concentration, Mean, C5N17B+Ritonavir, PO 10 mg/kg, 6 h, mean of mice 1#-3#) of the same molecule?
A: The concentration at 6 h was 1040 ng/mL.

Q: And the concentration at 8 h (in vivo; male, 10 mg/kg, Plasma concentration, Mean, C5N17B+Ritonavir, PO 10 mg/kg, 8 h, mean (1# BQL))?
A: The concentration at 8 h was 490 ng/mL.

Q: And the half-life (in vivo; male, 10 mg/kg, T1/2, Mean, C5N17B+Ritonavir, PO 10 mg/kg, mean of 3 mice)?
A: The half-life was 3.14 h.

Q: What about the Tmax (in vivo; [6]) of the same molecule?
A: Its Tmax is 2.08 h.

Q: And the “SARS‐CoV‐2 S and N proteins in virus‐infected cells” value [2]?
A: Its value is “dose‐dependent reduction”.

Q: And the CC50 (in vitro)?
A: The CC50 was > 100000 nM.

Q: What about the CC50 at 5 day [3] of the same molecule?
A: The CC50 at 5 day was > 100000 nM.

Q: What about the CC50 at 6 day [3] of the same molecule?
A: Its CC50 at 6 day is > 100000 nM.

Q: What about the EC50 [4] of the same molecule?
A: The EC50 was 154 ± 19 nM.
